Reference: US7977327B2, “Substituted pyrrolidine derivative” (Daiichi Sankyo Company, Limited, priority 2004, dated 2011)
Converted amounts (≈) assume the structure as drawn. Structures can show the parent of a compound that is named as a salt. Where two headings read alike, the source gives them in different places. Marks after values point to notes of the source that are not given here. Values belong to the compound of their own block, whether it stands above or below them.

What was measured:
[1] = system: S. marcescens 10100; assay: Antibacterial activity (MIC), standard method of the Japan Society of Chemotherapy; assay type: cell-based
Method: (§1) The antimicrobial activities of the compounds of the present invention were determined according to a standard method designated by the Japan Society of Chemotherapy. The results are expressed by MIC (μg/mL) (Table 1). In Table 1, S. aureus 870307 and S. pneumonia J24 are quinolone-resistant bacteria.

[2] = system: P. aeruginosa 32121; assay: as above; assay type: cell-based
Method: as §1

[3] = system: S. epidermidis 56500; assay: as above; assay type: cell-based
Method: as §1

[4] = system: S. aureus 870307; assay: as above; assay type: cell-based
Method: as §1

[5] = system: S. pyogenes G-36; assay: as above; assay type: cell-based
Method: as §1

[6] = system: P. Vulgalis 08601; assay: as above; assay type: cell-based
Method: as §1

[7] = system: K. pneumoniae TYPE I; assay: as above; assay type: cell-based
Method: as §1

[8] = system: S. maltophilia IID 1275; assay: as above; assay type: cell-based
Method: as §1

[9] = system: S. aureus FDA 209P; assay: as above; assay type: cell-based
Method: as §1

[10] = system: S. flexneri 2A 5503; assay: as above; assay type: cell-based
Method: as §1

[11] = system: P. aeruginosa 32104; assay: as above; assay type: cell-based
Method: as §1

[12] = system: E. faevcalis ATCC 19433; assay: as above; assay type: cell-based
Method: as §1

[13] = system: E. coli NIHJ; assay: as above; assay type: cell-based
Method: as §1

[14] = system: S. pneumoniae J24; assay: as above; assay type: cell-based
Method: as §1

[15] = system: Chinese hamster lung (CHL/IU) cells; assay: Effect of inducing chromosomal aberration; assay type: cell-based; settings: for Percentile induction of structural aberration (TA %): 24 hours
Method: From each sample solution, samples to be tested having a concentration of 1, 3, 10, 30, 50, and 100 μg/mL (as reduced to free form) were prepared. As a negative control, 0.1 mol/L NaOH was employed.
Chinese hamster lung (CHL/IU) cells in logarithmic growth phase were employed. The cells were treated in a culture solution containing each sample to be tested for 24 hours. Subsequently, a chromosome specimen was prepared from the thus-treated cells. The culture solution employed was an Eagle's MEM (product of NISSUI PHARMACEUTICAL CO., LTD.) medium containing 15% fetal bovine serum (15% FBS-MEM).
In each sample concentration, 100 cells during metaphase were observed, to thereby record types and numbers of the chromosomal aberration.

[16] = S. aureus 870307, quinolone-resistant
[17] = S. pneumoniae J24, quinolone-resistant

Structure (SMILES): CCC[C@H]1CN(c2c(F)cc3c(=O)c(C(=O)O)cn4c3c2OC[C@@H]4C)C[C@H]1N (as salt: hydrochloride)
melting point: 225 to 231 °C

Structure (SMILES): CCC[C@H]1CN(c2c(F)cc3c(=O)c(C(=O)O)cn([C@@H]4C[C@@H]4F)c3c2C)C[C@H]1N (as salt: hydrochloride) [Compound No. 5, 7-[(3S,4S)-3-Amino-4-propylpyrrolidin-1-yl]-6-fluoro-1-[(1R,2S)-2-fluorocyclopropyl]-8-methyl-1,4-dihydro-4-oxoquinoline-3-carboxylic acid-hydrochloride]
melting point: 197 to 207 °C

Structure (SMILES): O=C(O)c1cn(C2CC2)c2cc(N3CCNCC3)c(F)cc2c1=O [CPFX, reference compound]
MIC ([1]; S. marcescens 10100): 0.025 µg/mL (≈ 0.0754 µM) | MIC ([2]; P. aeruginosa 32121): 0.025 µg/mL (≈ 0.0754 µM) | MIC ([3]; S. epidermidis 56500): 0.2 µg/mL (≈ 0.604 µM) | MIC [4, 16]: >6.25 µg/mL | MIC ([5]; S. pyogenes G-36): 1.56 µg/mL (≈ 4.71 µM) | MIC ([6]; P. Vulgalis 08601): ≦0.003 μg/mL | MIC ([7]; K. pneumoniae TYPE I): 0.025 µg/mL (≈ 0.0754 µM) | MIC ([8]; S. maltophilia IID 1275): 0.78 µg/mL (≈ 2.35 µM) | MIC ([9]; S. aureus FDA 209P): 0.1 µg/mL (≈ 0.302 µM) | MIC [10]: 0.006 µg/mL (≈ 0.0181 µM) | MIC ([11]; P. aeruginosa 32104): 0.05 µg/mL (≈ 0.151 µM) | MIC ([12]; E. faevcalis ATCC 19433): 0.78 µg/mL (≈ 2.35 µM) | MIC ([13]; E. coli NIHJ): ≦0.003 μg/mL | MIC [14, 17]: 0.39 µg/mL (≈ 1.18 µM)

Structure (SMILES): CC[C@H]1CN(c2c(F)cc3c(=O)c(C(=O)O)cn(C4CC4)c3c2C)C[C@H]1N [Comparative Compound D, 7-[(3S,4S)-3-Amino-4-ethylpyrrolidine-1-yl]-1-cyclopropyl-6-fluoro-8-methyl-1,4-dihydro-4-oxoquinoline-3-carboxylic acid, reference compound]
Percentile induction of structural aberration (TA %) ([15]; 1 μg/mL, CHL/IU cells): 4% | Percentile induction of structural aberration (TA %) ([15]; 3 μg/mL, CHL/IU cells): 0% | Percentile induction of structural aberration (TA %) ([15]; 10 μg/mL, CHL/IU cells): 3% | Percentile induction of structural aberration (TA %) ([15]; 30 μg/mL, CHL/IU cells): 63* % | Percentile induction of structural aberration (TA %) ([15]; 50 μg/mL, CHL/IU cells): 98* % | Percentile induction of structural aberration (TA %) ([15]; 100 μg/mL, CHL/IU cells): 100* %

Structure (SMILES): CC[C@H]1CN(c2c(F)c(N)c3c(=O)c(C(=O)O)cn(C4CC4)c3c2C)C[C@H]1N [Comparative Compound E, 5-amino-7-[(3S,4S)-3-amino-4-ethyl-1-pyrrolidinyl]-1-cyclopropyl-6-fluoro-1,4-dihydro-8-methyl-4-oxoquinoline-3-carboxylic acid, reference compound]
Percentile induction of structural aberration (TA %) ([15]; 1 μg/mL, CHL/IU cells): 0% | Percentile induction of structural aberration (TA %) ([15]; 3 μg/mL, CHL/IU cells): 3% | Percentile induction of structural aberration (TA %) ([15]; 10 μg/mL, CHL/IU cells): 1% | Percentile induction of structural aberration (TA %) ([15]; 30 μg/mL, CHL/IU cells): 6% | Percentile induction of structural aberration (TA %) ([15]; 50 μg/mL, CHL/IU cells): TOX*^1 | Percentile induction of structural aberration (TA %) ([15]; 100 μg/mL, CHL/IU cells): TOX*^1 | Concentration at which C-mitosis and ski-pair-like chromosomes are observed considerably ([15]; CHL/IU cells): ≥ 50 µg/mL | Significant increase in number of the cells exhibiting chromosomal aberration ([15]; at a concentration of up to 30 μg/mL): not observed

Structure (SMILES): CCC[C@H]1CN(c2c(F)cc3c(=O)c(C(=O)O)cn([C@@H]4C[C@@H]4F)c3c2C)C[C@H]1N [Compound No. 5, 7-[(3S,4S)-3-Amino-4-propylpyrrolidin-1-yl]-6-fluoro-1-[(1R,2S)-2-fluorocyclopropyl]-8-methyl-1,4-dihydro-4-oxoquinoline-3-carboxylic acid-hydrochloride]
MIC ([1]; Serratia marcescens, 10100): 0.05 µg/mL | MIC ([2]; Pseudomonas aeruginosa, 32121): 0.1 µg/mL | MIC ([3]; Staphylococcus epidermidis, 56500): 0.025 µg/mL | MIC ([4]; Staphylococcus aureus, 870307): 0.2 µg/mL | MIC ([5]; Streptococcus pyogenes, G36): 0.025 µg/mL | MIC [6]: 0.012 µg/mL | MIC ([7]; Klebsiella pneumoniae): 0.025 µg/mL | MIC ([8]; Stenotrophomonas maltophilia, IID1275): 0.05 µg/mL | MIC ([9]; Staphylococcus aureus, FDA209P): 0.006 µg/mL | MIC ([10]; Shigella flexneri, 2A5503, read-out: MIC): 0.006 µg/mL | MIC ([11]; Pseudomonas aeruginosa, 32104): 0.2 µg/mL | MIC [12]: 0.1 µg/mL | MIC ([13]; Escherichia coli): 0.006 µg/mL | MIC ([14]; Streptococcus pneumoniae, J24): 0.025 µg/mL

Structure (SMILES): C=C[C@H]1CN(c2c(F)cc3c(=O)c(C(=O)O)cn4c3c2OC[C@@H]4C)C[C@H]1N [Compound No. 7, (3S)-10-[(3S,4S)-3-Amino-4-vinyl-1-pyrrolidinyl]-9-fluoro-2,3-dihydro-3-methyl-7-oxo-7H-pyrido[1,2,3-de][1,4]benzoxazine-6-carboxylic acid]
melting point: 238 to 240 °C

Structure (SMILES): CC[C@H]1CN(c2c(F)cc3c(=O)c(C(=O)O)cn4c3c2OC[C@@H]4C)C[C@H]1NC [Compound No. 13, (3S)-10-[(3S,4S)-3-Ethyl-4-methylaminopyrrolidin-1-yl]-9-fluoro-2,3-dihydro-3-methyl-7-oxo-7H-pyrido[1,2,3-de][1,4]benzoxazine-6-carboxylic acid]
melting point: 211 to 213 °C

Structure (SMILES): CC[C@H]1CN(c2c(F)cc3c(=O)c(C(=O)O)cn([C@@H]4C[C@@H]4F)c3c2C)C[C@H]1NC [Compound No. 15, 7-[(3S,4S)-3-Ethyl-4-methylaminopyrrolidin-1-yl]-6-fluoro-1-[(1R,2S)-2-fluorocyclopropyl]-8-methyl-1,4-dihydro-4-oxoquinoline-3-carboxylic acid]
melting point: 223 to 225 °C

Structure (SMILES): C[C@H]1COc2c(N3CCN(C)CC3)c(F)cc3c(=O)c(C(=O)O)cn1c23 [LVFX, reference compound]
MIC ([1]; S. marcescens 10100): 0.1 µg/mL (≈ 0.277 µM) | MIC ([2]; P. aeruginosa 32121): 0.1 µg/mL (≈ 0.277 µM) | MIC ([3]; S. epidermidis 56500): 0.39 µg/mL (≈ 1.08 µM) | MIC [4, 16]: >6.25 µg/mL | MIC ([5]; S. pyogenes G-36): 0.78 µg/mL (≈ 2.16 µM) | MIC ([6]; P. Vulgalis 08601): 0.012 µg/mL (≈ 0.0332 µM) | MIC ([7]; K. pneumoniae TYPE I): 0.1 µg/mL (≈ 0.277 µM) | MIC ([8]; S. maltophilia IID 1275): 0.39 µg/mL (≈ 1.08 µM) | MIC ([9]; S. aureus FDA 209P): 0.2 µg/mL (≈ 0.553 µM) | MIC [10]: 0.025 µg/mL (≈ 0.0692 µM) | MIC ([11]; P. aeruginosa 32104): 0.2 µg/mL (≈ 0.553 µM) | MIC ([12]; E. faevcalis ATCC 19433): 0.78 µg/mL (≈ 2.16 µM) | MIC ([13]; E. coli NIHJ): 0.012 µg/mL (≈ 0.0332 µM) | MIC [14, 17]: 0.78 µg/mL (≈ 2.16 µM)

Structure (SMILES): COc1c(N2C[C@@H]3CCCN[C@@H]3C2)c(F)cc2c(=O)c(C(=O)O)cn(C3CC3)c12 [MFLX, reference compound]
MIC ([1]; S. marcescens 10100): 0.1 µg/mL (≈ 0.249 µM) | MIC ([2]; P. aeruginosa 32121): 0.2 µg/mL (≈ 0.498 µM) | MIC ([3]; S. epidermidis 56500): 0.1 µg/mL (≈ 0.249 µM) | MIC [4, 16]: 0.78 µg/mL (≈ 1.94 µM) | MIC ([5]; S. pyogenes G-36): 0.2 µg/mL (≈ 0.498 µM) | MIC ([6]; P. Vulgalis 08601): 0.025 µg/mL (≈ 0.0623 µM) | MIC ([7]; K. pneumoniae TYPE I): 0.05 µg/mL (≈ 0.125 µM) | MIC ([8]; S. maltophilia IID 1275): 0.1 µg/mL (≈ 0.249 µM) | MIC ([9]; S. aureus FDA 209P): 0.025 µg/mL (≈ 0.0623 µM) | MIC [10]: 0.012 µg/mL (≈ 0.0299 µM) | MIC ([11]; P. aeruginosa 32104): 0.39 µg/mL (≈ 0.972 µM) | MIC ([12]; E. faevcalis ATCC 19433): 0.2 µg/mL (≈ 0.498 µM) | MIC ([13]; E. coli NIHJ): 0.006 µg/mL (≈ 0.0149 µM) | MIC [14, 17]: 0.025 µg/mL (≈ 0.0623 µM)

The remaining lines, values ahead:

melting point: 79 to 83 °C
Structure (SMILES): CCC[C@H]1CN(c2c(F)cc3c(=O)c(C(=O)O)cn([C@@H]4C[C@@H]4F)c3c2OC)C[C@H]1N [Compound No. 4, 7-[(3S,4S)-3-Amino-4-propylpyrrolidin-1-yl]-6-fluoro-1-[(1R,2S)-2-fluorocyclopropyl]-8-methoxy-1,4-dihydro-4-oxoquinoline-3-carboxylic acid]

melting point: 218 to 220 °C
Structure (SMILES): C[C@H]1COc2c(N3C[C@@H](N)[C@@H](C4CC4)C3)c(F)cc3c(=O)c(C(=O)O)cn1c23 [Compound No. 9, (3S)-10-[(3S,4S)-3-Amino-4-cyclopropylpyrrolidin-1-yl]-9-fluoro-2,3-dihydro-3-methyl-7-oxo-7H-pyrido[1,2,3-de][1,4]benzoxazine-6-carboxylic acid]

melting point: 143 to 145 °C
Structure (SMILES): CC[C@H]1CN(c2c(F)cc3c(=O)c(C(=O)O)cn([C@@H]4C[C@@H]4F)c3c2OC)C[C@H]1NC [Compound No. 12, 7-[(3S,4S)-3-Ethyl-4-methylaminopyrrolidin-1-yl]-6-fluoro-1-[(1R,2S)-2-fluorocyclopropyl]-8-methoxy-1,4-dihydro-4-oxoquinoline-3-carboxylic acid]

melting point: 232 to 234 °C
Structure (SMILES): CC[C@H]1CN(c2ccc3c(=O)c(C(=O)O)cn([C@@H]4C[C@@H]4F)c3c2C)C[C@H]1N [Compound No. 14, 7-[(3S,4S)-3-Amino-4-ethylpyrrolidine-1-yl]-1-[(1R,2S)-2-fluorocyclopropyl]-8-methyl-1,4-dihydro-4-oxoquinoline-3-carboxylic acid]

melting point: 168 to 171 °C
Structure (SMILES): CN[C@@H]1CN(c2c(F)cc3c(=O)c(C(=O)O)cn([C@@H]4C[C@@H]4F)c3c2C)C[C@@H]1C(C)C [Compound No. 17, 6-Fluoro-1-[(1R,2S)-2-fluorocyclopropyl]-7-[(3S,4S)-3-isopropyl-4-methylaminopyrrolidin-1-yl]-8-methyl-1,4-dihydro-4-oxoquinoline-3-carboxylic acid]
